Columns and labels:
AVEFA = assay: greenhouse post-emergence herbicidal test; type: in vivo, Avena fatua; details: post-emergence method, scale from 0 to 100
Text: (§1) The seeds of the test plants were sown separately for each species. For the post-emergence treatment, the test plants were first grown to a height of 3 to 15 cm, depending on the plant habit, and only then treated with the active ingredients which had been suspended or emulsified in water. For this purpose, the test plants were either sown directly and grown in the same containers, or they were first grown separately as seedlings and transplanted into the test containers a few days prior to treatment. Depending on the species, the plants were kept at 10-25° C. or 20-35° C., respectively. The test period extended over 2 to 4 weeks. During this time, the plants were tended, and their response to the individual treatments was evaluated. Evaluation was carried out using a scale from 0 to 100. 100 means no emergence of the plants, or complete destruction of at least the aerial moieties, and 0 means no damage, or normal course of growth. […] The plants used in the greenhouse experiments were of the following species: [table]

APESV = assay: greenhouse pre-emergence herbicidal test; type: in vivo, Apera spica-venti; details: pre-emergence method, scale from 0 to 100
Text: (§2) The seeds of the test plants were sown separately for each species. For the pre-emergence treatment, the active ingredients, which had been suspended or emulsified in water, were applied directly after sowing by means of finely distributing nozzles. The containers were irrigated gently to promote germination and growth and subsequently covered with transparent plastic hoods until the plants had rooted. This cover caused uniform germination of the test plants, unless this had been impaired by the active ingredients. Depending on the species, the plants were kept at 10-25° C. or 20-35° C., respectively. The test period extended over 2 to 4 weeks. During this time, the plants were tended, and their response to the individual treatments was evaluated. Evaluation was carried out using a scale from 0 to 100. 100 means no emergence of the plants, or complete destruction of at least the aerial moieties, and 0 means no damage, or normal course of growth. […] The plants used in the greenhouse experiments were of the following species: [table]

ALOMY = assay: greenhouse post-emergence herbicidal test; type: in vivo, Alopercurus myosuroides; details: post-emergence method, scale from 0 to 100
Text: as §1

ECHCG [1] = assay: greenhouse pre-emergence herbicidal test; type: in vivo, Echinocloa crus-galli; details: pre-emergence method, scale from 0 to 100
Text: as §2

ECHCG [2] = assay: greenhouse post-emergence herbicidal test; type: in vivo, Echinocloa crus-galli; details: post-emergence method, application rate 1000 g/ha, scale from 0 to 100
Text: as §1

SMILES: O=C(O)c1nc(C2CC2)ncc1-c1ccc(F)cc1F [example 133]
- herbicidal activity against AVEFA (AVEFA; application rate 500 g/ha): very good (a very good herbicidal activity is given at values of at least 85)
- herbicidal activity against APESV (APESV; application rate 500 g/ha): very good (a very good herbicidal activity is given at values of at least 85)
- herbicidal activity against ALOMY (ALOMY; application rate 500 g/ha): very good (a very good herbicidal activity is given at values of at least 85)
- herbicidal activity against ECHCG (ECHCG [1]; application rate 500 g/ha): very good (a very good herbicidal activity is given at values of at least 85)

SMILES: O=C(O)c1nc(C2CC2)ncc1-c1c(F)cc(F)cc1F [example 134]
- herbicidal activity against AVEFA (AVEFA; application rate 500 g/ha): very good (a very good herbicidal activity is given at values of at least 85)
- herbicidal activity against APESV (APESV; application rate 500 g/ha): very good (a very good herbicidal activity is given at values of at least 85)
- herbicidal activity against ALOMY (ALOMY; application rate 500 g/ha): very good (a very good herbicidal activity is given at values of at least 85)
- herbicidal activity against ECHCG (ECHCG [1]; application rate 500 g/ha): very good (a very good herbicidal activity is given at values of at least 85)

SMILES: O=C(O)c1nc(C2CC2)ncc1-c1ccccc1Cl [example 141]
- herbicidal activity against AVEFA (AVEFA; application rate 500 g/ha): very good (a very good herbicidal activity is given at values of at least 85)
- herbicidal activity against APESV (APESV; application rate 500 g/ha): very good (a very good herbicidal activity is given at values of at least 85)
- herbicidal activity against ALOMY (ALOMY; application rate 500 g/ha): very good (a very good herbicidal activity is given at values of at least 85)
- herbicidal activity against ECHCG (ECHCG [1]; application rate 500 g/ha): very good (a very good herbicidal activity is given at values of at least 85)

SMILES: COc1cccc(Cl)c1-c1cnc(C2CC2)nc1C(=O)O [example 178]
- herbicidal activity against AVEFA (AVEFA; application rate 500 g/ha): good (A good herbicidal activity is given at values of at least 70)
- herbicidal activity against APESV (APESV; application rate 500 g/ha): very good (a very good herbicidal activity is given at values of at least 85)
- herbicidal activity against ALOMY (ALOMY; application rate 500 g/ha): good (A good herbicidal activity is given at values of at least 70)
- herbicidal activity against ECHCG (ECHCG [1]; application rate 500 g/ha): very good (a very good herbicidal activity is given at values of at least 85)

SMILES: COC(=O)c1nc(C2CC2)ncc1-c1cc(Br)ccc1F [example 191]
- herbicidal activity against AVEFA (AVEFA; application rate 1000 g/ha): good (A good herbicidal activity is given at values of at least 70)
- herbicidal activity against APESV (APESV; application rate 1000 g/ha): very good (a very good herbicidal activity is given at values of at least 85)
- herbicidal activity against ECHCG (ECHCG [2]): very good (a very good herbicidal activity is given at values of at least 85)
- herbicidal activity against ALOMY (ALOMY; application rate 1000 g/ha): good (A good herbicidal activity is given at values of at least 70)
- herbicidal activity against ECHCG (ECHCG [1]; application rate 1000 g/ha): very good (a very good herbicidal activity is given at values of at least 85)

SMILES: COC(=O)c1nc(C2CC2)ncc1-c1ccc(F)cc1F [example 192]
- herbicidal activity against AVEFA (AVEFA; application rate 500 g/ha): very good (a very good herbicidal activity is given at values of at least 85)
- herbicidal activity against APESV (APESV; application rate 500 g/ha): very good (a very good herbicidal activity is given at values of at least 85)
- herbicidal activity against ALOMY (ALOMY; application rate 500 g/ha): very good (a very good herbicidal activity is given at values of at least 85)
- herbicidal activity against ECHCG (ECHCG [1]; application rate 500 g/ha): very good (a very good herbicidal activity is given at values of at least 85)

SMILES: COC(=O)c1nc(C2CC2)ncc1-c1c(F)cc(F)cc1F [example 193]
- herbicidal activity against AVEFA (AVEFA; application rate 500 g/ha): very good (a very good herbicidal activity is given at values of at least 85)
- herbicidal activity against APESV (APESV; application rate 500 g/ha): very good (a very good herbicidal activity is given at values of at least 85)
- herbicidal activity against ALOMY (ALOMY; application rate 500 g/ha): very good (a very good herbicidal activity is given at values of at least 85)
- herbicidal activity against ECHCG (ECHCG [1]; application rate 500 g/ha): very good (a very good herbicidal activity is given at values of at least 85)

SMILES: COC(=O)c1nc(C2CC2)ncc1-c1c(Br)ccc(F)c1F [example 197]
- herbicidal activity against AVEFA (AVEFA; application rate 1000 g/ha): very good (a very good herbicidal activity is given at values of at least 85)
- herbicidal activity against APESV (APESV; application rate 1000 g/ha): very good (a very good herbicidal activity is given at values of at least 85)
- herbicidal activity against ALOMY (ALOMY; application rate 1000 g/ha): very good (a very good herbicidal activity is given at values of at least 85)
- herbicidal activity against ECHCG (ECHCG [1]; application rate 1000 g/ha): very good (a very good herbicidal activity is given at values of at least 85)

SMILES: COC(=O)c1nc(C2CC2)ncc1-c1c(Cl)cc(Cl)cc1Cl [example 209]
- herbicidal activity against AVEFA (AVEFA; application rate 1000 g/ha): very good (a very good herbicidal activity is given at values of at least 85)
- herbicidal activity against APESV (APESV; application rate 1000 g/ha): very good (a very good herbicidal activity is given at values of at least 85)
- herbicidal activity against ALOMY (ALOMY; application rate 1000 g/ha): very good (a very good herbicidal activity is given at values of at least 85)

SMILES: COC(=O)c1nc(C2CC2)ncc1-c1c(F)cc(F)cc1Br [example 214]
- herbicidal activity against AVEFA (AVEFA; application rate 1000 g/ha): very good (a very good herbicidal activity is given at values of at least 85)
- herbicidal activity against APESV (APESV; application rate 1000 g/ha): very good (a very good herbicidal activity is given at values of at least 85)
- herbicidal activity against ALOMY (ALOMY; application rate 1000 g/ha): very good (a very good herbicidal activity is given at values of at least 85)
- herbicidal activity against ECHCG (ECHCG [1]; application rate 1000 g/ha): very good (a very good herbicidal activity is given at values of at least 85)

SMILES: COC(=O)c1nc(C2CC2)ncc1-c1cc(F)c(F)cc1Br [example 215]
- herbicidal activity against AVEFA (AVEFA; application rate 500 g/ha): very good (a very good herbicidal activity is given at values of at least 85)
- herbicidal activity against APESV (APESV; application rate 500 g/ha): very good (a very good herbicidal activity is given at values of at least 85)
- herbicidal activity against ALOMY (ALOMY; application rate 500 g/ha): very good (a very good herbicidal activity is given at values of at least 85)
- herbicidal activity against ECHCG (ECHCG [1]; application rate 500 g/ha): very good (a very good herbicidal activity is given at values of at least 85)

SMILES: COC(=O)c1nc(C2CC2)ncc1-c1ccc(F)cc1C#N [example 220]
- herbicidal activity against AVEFA (AVEFA; application rate 500 g/ha): very good (a very good herbicidal activity is given at values of at least 85)
- herbicidal activity against APESV (APESV; application rate 500 g/ha): very good (a very good herbicidal activity is given at values of at least 85)
- herbicidal activity against ALOMY (ALOMY; application rate 500 g/ha): very good (a very good herbicidal activity is given at values of at least 85)

SMILES: CC(C)OC(=O)c1nc(C2CC2)ncc1-c1ccccc1Cl [example 252]
- herbicidal activity against AVEFA (AVEFA; application rate 1000 g/ha): very good (a very good herbicidal activity is given at values of at least 85)
- herbicidal activity against ALOMY (ALOMY; application rate 1000 g/ha): very good (a very good herbicidal activity is given at values of at least 85)
- herbicidal activity against ECHCG (ECHCG [1]; application rate 1000 g/ha): very good (a very good herbicidal activity is given at values of at least 85)

SMILES: C[Si](C)(C)CCOC(=O)c1nc(C2CC2)ncc1-c1ccccc1Cl [example 258]
- herbicidal activity against AVEFA (AVEFA; application rate 1000 g/ha): very good (a very good herbicidal activity is given at values of at least 85)
- herbicidal activity against ECHCG (ECHCG [2]): very good (a very good herbicidal activity is given at values of at least 85)
- herbicidal activity against ALOMY (ALOMY; application rate 1000 g/ha): very good (a very good herbicidal activity is given at values of at least 85)
- herbicidal activity against ECHCG (ECHCG [1]; application rate 1000 g/ha): very good (a very good herbicidal activity is given at values of at least 85)

SMILES: O=C(NO)c1nc(C2CC2)ncc1-c1ccccc1Cl [example 290]
- herbicidal activity against AVEFA (AVEFA; application rate 500 g/ha): very good (a very good herbicidal activity is given at values of at least 85)
- herbicidal activity against APESV (APESV; application rate 500 g/ha): very good (a very good herbicidal activity is given at values of at least 85)
- herbicidal activity against ALOMY (ALOMY; application rate 500 g/ha): very good (a very good herbicidal activity is given at values of at least 85)
- herbicidal activity against ECHCG (ECHCG [1]; application rate 500 g/ha): very good (a very good herbicidal activity is given at values of at least 85)

SMILES: O=C(O)c1nc(C2CC2)ncc1-c1c(Cl)cccc1C(F)(F)F [example 304]
- herbicidal activity against AVEFA (AVEFA; application rate 1000 g/ha): very good (a very good herbicidal activity is given at values of at least 85)
- herbicidal activity against APESV (APESV; application rate 1000 g/ha): very good (a very good herbicidal activity is given at values of at least 85)
- herbicidal activity against ECHCG (ECHCG [2]): very good (a very good herbicidal activity is given at values of at least 85)
- herbicidal activity against ALOMY (ALOMY; application rate 1000 g/ha): very good (a very good herbicidal activity is given at values of at least 85)

Reference: patent US10420341B2, “Herbicidal phenylpyrimidines” (BASF SE, priority 2015, dated 2019)
